Reference: US12208118B2, “Pharmaceutical compositions for delivery of peptide” (ANYA BIOPHARM INC., priority 2017, dated 2025)

Experiment: Quantification of teriparatide in rat plasma using ELISA kit
Assay type: in vivo, S.D. rats
Settings: following subcutaneous and distal small intestine (ileum) administration, rats
Procedure: Quantification of Teriparatide in Rat Plasma Using ELISA Kit
Test formulation I: Teriparatide; Apprearance: Solution for injection; Concentration: 600 μg/2.4 ml; Storage condition: 2-8° C.; Dose: 10 μg/animal; Route: SC.
Test formulation II: MIRA 4 (Table 15D) plus PA1 (Table 16D) was dosed into distal small intestine (ileum) at a dose of 240 μg/animal to anesthetized rats; Dose: 240 μg/animal; Route: distal small intestine (ileum).
Test formulation III: MIRA 1 (Table 15A) plus PA3 (Table 16E) was dosed into distal small intestine (ileum) at a dose of 240 μg/animal to anesthetized S.D. rats; Dose: 240 μg/animal; Route: distal small intestine (ileum).
During the experiment, the animals were non-fasted. […] The clinical signs observed are normal. […]
Kit Protocol: Used manufacturer recommended protocol (Cat.No. 60-3900)—Place a sufficient number of Streptavidin Coated Strips in a holder to run PTH standards, controls and unknown samples; Pipet 150 μL of standard, control, or sample into the designated or mapped well. […] Read the absorbance at 620 nm (see Note) within 5 minutes in a microtiter plate reader against the 0 μg/mL Standard wells as a blank; Immediately pipet 50 μL of ELISA Stop Solution into each of the wells. […]

In the case of CC[C@H](C)[C@H](NC(=O)[C@H](CCC(=O)O)NC(=O)[C@H](CO)NC(=O)[C@@H](NC(=O)[C@@H](N)CO)C(C)C)C(=O)N[C@@H](CCC(N)=O)C(=O)N[C@@H](CC(C)C)C(=O)N[C@@H](CCSC)C(=O)N[C@@H](Cc1cnc[nH]1)C(=O)N[C@@H](CC(N)=O)C(=O)N[C@@H](CC(C)C)C(=O)NCC(=O)N[C@@H](CCCCN)C(=O)N[C@@H](Cc1cnc[nH]1)C(=O)N[C@@H](CC(C)C)C(=O)N[C@@H](CC(N)=O)C(=O)N[C@@H](CO)C(=O)N[C@@H](CCSC)C(=O)N[C@@H](CCC(=O)O)C(=O)N[C@@H](CCCN=C(N)N)C(=O)N[C@H](C(=O)N[C@@H](CCC(=O)O)C(=O)N[C@@H](Cc1c[nH]c2ccccc12)C(=O)N[C@@H](CC(C)C)C(=O)N[C@@H](CCCN=C(N)N)C(=O)N[C@@H](CCCCN)C(=O)N[C@@H](CCCCN)C(=O)N[C@@H](CC(C)C)C(=O)N[C@@H](CCC(N)=O)C(=O)N[C@@H](CC(=O)O)C(=O)N[C@H](C(=O)N[C@@H](Cc1cnc[nH]1)C(=O)N[C@@H](CC(N)=O)C(=O)N[C@@H](Cc1ccccc1)C(=O)O)C(C)C)C(C)C [teriparatide], the clinical signs is reported as “normal” and the mortality is reported as “no mortality observed”.
